Consider two compounds from PMC7734798 (ACS Medicinal Chemistry Letters, 2020).

One assay concerns N9 microglial cells. Description: Nitrites measurement (Griess reaction) in medium of LPS-treated N9 microglial cells. The assay is classed as cell-based, mouse. The note with it: 100 ng/mL LPS, 6 h pretreatment + 24 h. The source says:
Microglia, essential regulators of neuroinflammatory processes, can be polarized to two distinct activation states: M1 and M2. M1 microglia have proinflammatory, neurotoxic properties and are modeled in vitro through lipopolysaccharides (LPS) activation. Alternatively, M2 microglia are involved in anti-inflammatory processes, contributing to trophic support of neurons and neuroprotective functions. A marked microglial activation with high expression levels of proinflammatory genes is found in MS lesions.[23] Conversely, the neuroprotective effects of the MS drug glatiramer are mediated by activated M2 microglia.[24] To this end, we evaluated whether 1 and 2 modulate microglial shift from an M1 neurotoxic phenotype to an M2 neuroprotective one. […] After pretreatment for 6 h and administration for a further 24 h, the microglial phenotype was evaluated through Western blot analysis of the M1-iNOS (inducible Nitric Oxide Synthase) and M2-TREM2 (Triggering Receptor Expressed on Myeloid cells 2) markers (Figure 6). We also assessed nitrite production, due to iNOS induction, in the incubation media. […]
medium/well and treated with increasing concentrations of the compounds (0.5, 1, 5 and 10 μM), in serum-free DMEM for 24 hours. After 24 hours, the viability was evaluated through the MTT assay. […]
(In general: Nitrite, measured by Griess reagent, commonly stands in for NO production.)

For the next assay, the system named is Oli-Neu cells. Description: Oli-Neu cell proliferation and differentiation assay: cell counting and measure of filaments. The assay is classed as cell-based, mouse. Conditions: 5 μM, 48 h. The source says:
OPC proliferation and migration to the CNS injury site as well as their differentiation are critical steps toward remyelination in MS. HDAC activity plays a crucial role in OPC proliferation/differentiation; therefore, HDAC modulation is widely considered a promising therapeutic target for MS.[30] […] Therefore, we tested the effect of our compounds on OPC proliferation and differentiation, through cell counting, measure of filaments, and analysis of proliferation/differentiation markers (Figure 7).
Oli-Neu cells were grown in SATO medium (DMEM medium, 2 mM glutamine, 10 μg/ml insulin, 5.5 μg/ml transferrin, 38.72 nM sodium selenite, 100 µM putrescine, 520 nM L-thyroxine (T4), 500 nM triiodo-L-thyronine (T3), 200 nM progesterone, 25 μg/ml of gentamycin) supplemented with 1% heat-inactivated horse serum (HS) in a humidified, 5% CO2 incubator at 37°C. Cell culture medium and all chemicals were from Sigma-Aldrich, except for insulin-transferrin-sodium selenite 100X supplement (Life Technologies Corporation). Cells were plated on 96 well plates, previously coated with 10 μg/mL poly-L-lysine (Sigma-Aldrich; 10 μg/ml) at the density of 2.5 x 10 4/0.2 mL medium/well and treated with increasing concentrations of the compounds (0.5, 1, 5 and 10 μM). […]
Oli-Neu cells proliferation and differentiation assay
48 hours, for cell counting and measure of filaments, 5 random images for each condition were acquired with an Eclipse TS100 (Nikon) microscope using a 10X objective. Cells number and filament length were measured with Fiji ImageJ2 software. […]

In the case of `CC/C=C\C/C=C\C/C=C\CCCCCCCC(=O)NCCOC(=O)C(CCC)CCC` [compound 2], the “levels of nitrites in incubation medium” value with N9 microglial cells is “reduced their concentration more effectively than VPA”. In addition, in the assay with Oli-Neu cells, the Oli-Neu cell number entry is “decrease cell number” and the Oli-Neu filament length result is recorded as “parallel increase in filament length”.
As for `CC/C=C\C/C=C\C/C=C\CCCCCCCC(=O)NCCNC(=O)C(CCC)CCC` [compound 1], the “levels of nitrites in incubation medium” value with N9 microglial cells is reported as “reduced their concentration more effectively than VPA”. Moreover, in the assay with Oli-Neu cells, the Oli-Neu cell number result is “decrease cell number” and the Oli-Neu filament length entry is “parallel increase in filament length”.
